This test has as its target T1, Dd myosin-II motor domain (Dictyostelium discoideum, UniProt P08799).
T1 construct: gene mhcA; His6-tagged motor domain, amino acids 1–765 fused to a C-terminal SSB tag
The test can be described thus: microscale thermophoresis (MST); also X-ray crystal structure with blebbistatin. The format is binding.

T1 sequence (P08799 1-765): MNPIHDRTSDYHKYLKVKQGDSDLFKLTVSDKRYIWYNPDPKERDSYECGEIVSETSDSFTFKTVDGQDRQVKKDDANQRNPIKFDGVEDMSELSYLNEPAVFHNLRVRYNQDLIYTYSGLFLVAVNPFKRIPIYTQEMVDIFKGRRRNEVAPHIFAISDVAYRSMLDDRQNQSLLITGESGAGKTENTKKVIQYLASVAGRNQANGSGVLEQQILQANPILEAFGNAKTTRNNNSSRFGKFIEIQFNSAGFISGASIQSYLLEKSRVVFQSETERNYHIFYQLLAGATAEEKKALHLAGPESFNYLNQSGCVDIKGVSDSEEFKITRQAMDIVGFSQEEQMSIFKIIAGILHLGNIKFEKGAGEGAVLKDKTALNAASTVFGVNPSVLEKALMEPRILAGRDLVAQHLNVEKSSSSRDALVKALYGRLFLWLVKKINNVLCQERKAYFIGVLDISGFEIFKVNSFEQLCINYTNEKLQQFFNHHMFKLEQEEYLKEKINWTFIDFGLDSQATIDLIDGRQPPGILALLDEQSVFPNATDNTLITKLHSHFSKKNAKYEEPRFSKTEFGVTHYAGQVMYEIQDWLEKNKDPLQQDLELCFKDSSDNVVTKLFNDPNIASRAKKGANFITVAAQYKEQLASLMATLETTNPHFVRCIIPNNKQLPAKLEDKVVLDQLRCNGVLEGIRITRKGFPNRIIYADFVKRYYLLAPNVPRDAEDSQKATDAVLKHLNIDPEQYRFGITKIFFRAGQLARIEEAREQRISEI

`Nc1ncnc2c1ncn2[C@@H]1O[C@H](COP(=O)(O)OP(=O)(O)O)[C@@H](O)[C@H]1O` [ADP] yielded an equilibrium dissociation constant (Kd) of 37.5 ± 7.3 µM.

These data come from article PMC7582316, “Structural and Computational Insights into a Blebbistatin-Bound Myosin•ADP Complex with Characteristics of an ADP-Release Conformation along the Two-Step Myosin Power Stoke” (International Journal of Molecular Sciences, 2020).
